pIC50: −log10 of the molar value. “Also recorded” adds a separate entry of the source.
Tests used:
[1] = tested on: HepG2; assay: Cell proliferative assay (MTT), HepG2; assay type: cell-based; conditions: Homo sapiens, 72 h incubation, read-out: IC50s HepG2
How it was run: (§1)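 Cytotoxicity is determined by MTT assay after 72 h of compound treatment at multiple doses. The IC50 is derived from dose-response curves and reported as mean±SEM over at least three independent runs.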

[2] = tested on: K562; assay: Cell proliferative assay (MTT), K562; assay type: cell-based; conditions: Homo sapiens, 72 h incubation, read-out: IC50s K562
How it was run: as §1

[3] = tested on: A549; assay: Cell proliferative assay (MTT), A549; assay type: cell-based; conditions: Homo sapiens, 72 h incubation, read-out: IC50s A549
How it was run: as §1

[4] = tested on: A375; assay: Cell proliferative assay (MTT), A375; assay type: cell-based; conditions: Homo sapiens, A-375, 72 h incubation, read-out: IC50s A375
How it was run: as §1

[5] = tested on: SMMC-7221; assay: Cell proliferative assay (MTT), SMMC-7221; assay type: cell-based; conditions: 72 h incubation, read-out: IC50s SMMC-7221
How it was run: as §1

[6] = tested on: LO2; assay: Cell proliferative assay (MTT), LO2; assay type: cell-based; conditions: Homo sapiens, L02, 72 h incubation, read-out: IC50s LO2
How it was run: as §1

[7] = tested on: HepG2 cells; assay: Human hepatocarcinoma HepG2 xenograft (SKLBC-76 study); assay type: in vivo, Balb/c nude mice; conditions: 2.5, 5, 10 mg/kg intravenous every three days for eight times; vs control
Method: (6) In Vivo Anti-Tumor Activity of SKLBC-76 on Human Hepatocarcinoma HepG2 Xenograft
Six-week-old Balb/c nude mice were obtained from Chinese Academy of Medical Science (Beijing, China). HepG2 cells (10^7 in 100 μl saline) were injected subcutaneously into the right flanks of the mice. 14 days after cell injection, fifty mice were selected and randomly divided into five groups including control, three doses of SKLBC-76 (2.5, 5, 10 mg/kg) and positive control taxol (5 mg/kg). The animals were intravenously injected with SKLBC-76 or taxol every three days for eight times. Tumor burden and animal body weight was measured every 2 or 3 days. The survival rate was also recorded. After treatment, mice were killed and tumors were collected and weighted.

[8] = tested on: SW620; assay: Cell proliferative assay (MTT), SW620; assay type: cell-based; conditions: Homo sapiens, SW-620, 72 h incubation, read-out: IC50s SW620
How it was run: as §1

[9] = tested on: HT29; assay: Cell proliferative assay (MTT), HT29; assay type: cell-based; conditions: Homo sapiens, HT-29, 72 h incubation, read-out: IC50s HT29
How it was run: as §1

[10] = tested on: HCT116; assay: Cell proliferative assay (MTT), HCT116; assay type: cell-based; conditions: Homo sapiens, HCT-116, 72 h incubation, read-out: IC50s HCT116
How it was run: as §1

[11] = tested on: B16F10 cells; assay: Malignant melanoma B16 tumor xenograft study; assay type: in vivo, C57 mice; conditions: 5, 10 and 15 mg/kg intravenous once every other day for seven times; vs control P<0.01
Method: In Vivo Antitumor Activity (1) In Malignant Melanoma B16 Tumor Xenograft Study of Millepachine
Six-week-old female mice were obtained from Chinese Academy of Medical Science (Beijing, China). B16F10 cells (5×10^5 in 100 μl saline) were injected subcutaneously into the right flanks of C57 mice. When the tumor reached about 100 mm^3, mice were selected and randomly divided into four groups including control and three compounds-treated groups. The animals were intravenous injection with Millepachine (5, 10 and 15 mg/kg) or vehicle once every other day for seven times. Tumor burden was measured every 2 or 3 days with a caliper (calculated volume [mm^3]=π/6×length×width×width). After treatment, mice were killed tumors were collected and weighted.

[12] = tested on: B16F10 cells; assay: Malignant melanoma B16-induced lung metastasis; assay type: in vivo, C57 mice; conditions: 7.5 and 15 mg/kg intravenous once every other day for seven times
Method: (2) The Effect of Millepachine on the Malignant Melanoma B16-Induced Lung Metastasis
Six-week-old female mice were obtained from Chinese Academy of Medical Science (Beijing, China). B16F10 cells (5×10^5 in 100 μl saline) were injected intravenous into the caudal vein of C57 mice. The animals were intravenous injection with Millepachine (7.5 and 15 mg/kg) or vehicle once every other day for seven times after incubation of cell. After stop treatment for 20 days, mice were killed and lung metastasis was observed.

[13] = tested on: tumor cells; assay: Cell proliferative assay (MTT), summary over tumor cells; assay type: cell-based; conditions: summary in words of Table 1, colon, liver, leukemia lines
Method: The synthesized compounds were evaluated for their cytotoxin activity against suspended tumor cells. These cells were seeded on 96-well plates and incubated for 24 h. Selected compounds were added at various doses and incubated for 72 h, MTT was then added, and the absorbance was measured at a wavelength of 590 nm. IC50 values are expressed as the mean±SEM from the dose-response curves of at least three independent experiments.

[14] = tested on: several cancer cell lines; conditions: background statement; cited from earlier work
[15] = tested on: HeLa-C3 cells; conditions: background statement; cited from earlier work
[16] = tested on: C26 cells; assay: C26-tumor bearing mice model (SKLBC-83 study); assay type: in vivo, Balb/c mice; conditions: 10 mg/kg intravenous every two days for eight times; vs control
Method: (7) In Vivo Anti-Tumor Activity of SKLBC-83 on C26-Tumor Bearing Mice Model.
Six-week-old Balb/c mice were obtained from Chinese Academy of Medical Science (Beijing, China). C26 cells (3×10^6 in 100 μl saline) were injected subcutaneously into the right flanks of the mice. 10 days after cell injection, thirty mice were selected and randomly divided into three groups including saline control, SKLBC-83 (10 mg/kg) and positive control taxol (5 mg/kg). The animals were intravenously injected with […] or taxol every two days for eight times. Tumor burden and animal body weight was measured every 2 or 3 days. The survival rate was also recorded. After treatment, mice were killed and tumors were collected and weighted.

[17] = tested on: C26 cells; assay: C26-tumor bearing mice model (seven-compound study); assay type: in vivo, Balb/c mice; conditions: 10 mg/kg intravenous every two days for eight times; vs control
Method: (8) In Vivo Anti-Tumor Activity of SKLBC-45, SKLBC-68, SKLBC-74, SKLBC-75, SKLBC-76, SKLBC-79, SKLBC-80 on C26-Tumor Bearing Mice Model.
Six-week-old Balb/c mice were obtained from Chinese Academy of Medical Science (Beijing, China). C26 cells (3×10^6 in 100 μl saline) were injected subcutaneously into the right flanks of the mice. 10 days after cell injection, when the average tumor volume reached ˜60 mm^3. Fifty-four mice were selected and randomly divided into nine groups including saline control, seven compounds and positive control taxol (5 mg/kg). The treatment started one day later. The animals were intravenously injected with SKLBC-45, SKLBC-68, SKLBC-74, SKLBC-75, SKLBC-76, SKLBC-79, SKLBC-80 (all 10 mg/kg) or taxol every two days for eight times. Tumor burden and animal body weight was measured every 2 or 3 days. The survival rate was also recorded. After treatment, mice were killed and tumors were collected and weighted. The results were shown in FIGS. 15, 16, 17, 18, 19, 20 and 21.

[18] = tested on: A549 cells; assay: Human lung cancer A549 xenograft; assay type: in vivo, Balbc mice; conditions: 5, 10 and 20 mg/kg intravenous once three days for eight times; vs control P<0.01
Method: (3) In Vivo Anti-Tumor Activity of SKLBC-9 on Human Lung Cancer A549 Xenograft
Six-week-old female mice were obtained from Chinese Academy of Medical Science (Beijing, China). A549 cells (5×10^6 in 100 μl saline) were injected subcutaneously into the right flanks of Balbc mice. When the tumor reached about 100 mm^3, mice were selected and randomly divided into five groups including control, cisplatin (1.5 mg/kg) and SKLBC-9 (5,10,20 mg/kg). The animals were intravenous injection with SKLBC-9 (5, 10 and 20 mg/kg) or vehicle once three days for eight times. Tumor burden was measured every 2 or 3 days with a caliper (calculated volume [mm^3]=n/6× length×width×width). After treatment, mice were killed and tumors were collected and weighted.

[19] = tested on: SPC-A1 cells; assay: Human lung cancer SPC-A1 xenograft; assay type: in vivo, Balb/c nude mice; conditions: 10, 20 mg/kg intravenous every three days for eight times; vs vehicle control
Method: (4) In Vivo Anti-Tumor Activity of SKLBC-9 on Human Lung Cancer SPC-A1 Xenograft
Six-week-old Balb/c nude mice were obtained from Chinese Academy of Medical Science (Beijing, China). SPC-A1 cells (5×10^6 in 100 μl saline) were injected subcutaneously into the right flanks of the mice. 14 days after cell injection, forty mice were selected and randomly divided into four groups including control, cisplatin (1.5 mg/kg) and SKLBC-9 (10, 20 mg/kg). The animals were intravenously injected with SKLBC-9 or vehicle every three days for eight times. Tumor burden and animal body weight was measured every 2 or 3 days. The survival rate was also recorded. After treatment, mice were killed and tumors were collected and weighted.

CCC(=O)Oc1cc(/C=C/C(=O)c2ccc(OC)c3c2OC(C)(C)C=C3)ccc1OC [SKLBC-76, (E)-2-methoxy-5-(3-(5-methoxy-2,2-dimethyl-2H-chromen-8-yl)-3-oxoprop-1-en-1-yl)phenyl propionate]
pIC50 [1]: 6.99 | pIC50 [2]: 6.79 | pIC50 [3]: 6.32 | pIC50 [4]: 6.35 | pIC50 [5]: 5.67 | pIC50 [6]: < 5.00 | average tumor weight [7]: significantly lower | growth of tumor [7]: significantly inhibited

COc1ccc(/C=C/C(=O)c2ccc(OC)c3c2OC(C)(C)C=C3)cc1 [Millepachine, (E)-1-(5-methoxy-2,2-dimethyl-2H-chromen-8-yl)-3-(4-methoxyphenyl)prop-2-en-1-one]
pIC50 [1]: 5.58 | pIC50 [8]: 6.12 | pIC50 [9]: 5.48 | pIC50 [2]: 5.34 | pIC50 [10]: 5.33 | survivor time of tumor-bearing mice [11]: prolong the survivor time | tumor growth [11]: suppress tumor growth | lung metastasis [12]: dose-dependently inhibited; also recorded: significantly inhibited | inhibitory activity against tumor cells [13]: better inhibitory activity | inhibitory activity against tumor cells ([13]; listed as SKLBC-1): best inhibitory activity | cytotoxic effects against cancer cells [14]: significant cytotoxic and apoptotic effects | apoptotic effects against cancer cells [15]: significant cytotoxic and apoptotic effects

COc1ccc(/C=C/C(=O)c2ccc(OC)c3c2OC(C)(C)C=C3)cc1N [SKLBC-83, (E)-3-(3-amino-4-methoxyphenyl)-1-(5-methoxy-2,2-dimethyl-2H-chromen-8-yl)prop-2-en-1-one]
pIC50 [1]: 7.38 | pIC50 [2]: 6.61 | pIC50 [3]: 6.55 | pIC50 [4]: 6.95 | pIC50 [5]: 6.56 | pIC50 [6]: 5.07 | average tumor weight [16]: significantly lower | growth of tumor [16]: significantly inhibited | average tumor weight [17]: significantly lower | growth of tumor [17]: significantly inhibited

COc1ccc(C(=O)/C=C/c2ccc(N(C)C)cc2)c2c1C=CC(C)(C)O2 [SKLBC-9, (E)-3-(4-(dimethylamino)phenyl)-1-(5-methoxy-2,2-dimethyl-2H-chromen-8-yl)prop-2-en-1-one]
pIC50 [1]: 6.14 | pIC50 [8]: 6.24 | pIC50 [9]: 5.73 | pIC50 [2]: 5.46 | pIC50 [10]: 5.79 | tumor growth [18]: suppress tumor growth | average tumor weight [19]: significantly lower | growth of tumor [19]: significantly inhibited | inhibitory activity against tumor cells [13]: better inhibitory activity

Source: US9394268B2, “(E)-1-(5-methoxy-2,2-dimethyl-2H-chromen-8-yl)-3-(4-methoxyphenyl)prop-2-en-1-one and analogs thereof, as well as preparation method and use thereof” (Sichuan University, priority 2012, dated 2016)
